Test results reported in ChEMBL document CHEMBL4270599, “Synthesis of a 3'-C-ethynyl-β-d-ribofuranose purine nucleoside library: Discovery of C7-deazapurine analogs as potent antiproliferative nucleosides” (Eur J Med Chem, 2018).

Assays:
Format in all cases: functional
UACC-257 [1] = test: Growth inhibition of human UACC257 cells assessed as cell growth at 10^-6 M incubated for 48 hrs by sulforhodamine B assay relative to control; settings: UACC-257, 48 h, read-out: Activity
LOX IMVI = test: Growth inhibition of human LOXIMVI cells assessed as cell growth at 10^-7 M incubated for 48 hrs by sulforhodamine B assay relative to control; settings: read-out: Activity
SK-MEL-2 = test: Growth inhibition of human SK-MEL-2 cells assessed as cell growth at 10^-6 M incubated for 48 hrs by sulforhodamine B assay relative to control; settings: SK-MEL-2, 48 h, read-out: Activity
Hs-578T = test: Growth inhibition of human Hs 578T cells assessed as cell growth at 10^-7 M incubated for 48 hrs by sulforhodamine B assay relative to control; settings: read-out: Activity
TK-10 = test: Growth inhibition of human TK10 cells assessed as cell growth at 10^-6 M incubated for 48 hrs by sulforhodamine B assay relative to control; settings: TK-10, 48 h, read-out: Activity
NCI-H23 [2] = test: Growth inhibition of human NCI-H23 cells assessed as cell growth at 10^-5 M incubated for 48 hrs by sulforhodamine B assay relative to control; settings: NCI-H23, 48 h, read-out: Activity
UACC-257 [3] = test: Cytotoxicity against human UACC257 cells after 48 hrs by SRB assay; settings: UACC-257, 48 h; for GI50: read-out: GI50; for CC50: read-out: LC50 (the source's name); for TGI: read-out: TGI
786-0 = test: Growth inhibition of human 786-0 cells assessed as cell growth at 10^-8 M incubated for 48 hrs by sulforhodamine B assay relative to control; settings: 786-0, 48 h, read-out: Activity
NCI/ADR-RES = test: Growth inhibition of human NCI/ADR-RES cells assessed as cell growth at 10^-7 M incubated for 48 hrs by sulforhodamine B assay relative to control; settings: read-out: Activity
EKVX = test: Growth inhibition of human EKVX cells assessed as cell growth at 10^-8 M incubated for 48 hrs by sulforhodamine B assay relative to control; settings: read-out: Activity
U-251 [4] = test: Growth inhibition of human U251 cells assessed as cell growth at 10^-6 M incubated for 48 hrs by sulforhodamine B assay relative to control; settings: U-251, 48 h, read-out: Activity
SF-268 = test: Growth inhibition of human SF268 cells assessed as cell growth at 10^-6 M incubated for 48 hrs by sulforhodamine B assay relative to control; settings: SF-268, 48 h, read-out: Activity
SN12C = test: Growth inhibition of human SN12C cells assessed as cell growth at 10^-7 M incubated for 48 hrs by sulforhodamine B assay relative to control; settings: read-out: Activity
MCF7 [5] = test: Growth inhibition of human MCF7 cells assessed as cell growth at 10^-8 M incubated for 48 hrs by sulforhodamine B assay relative to control; settings: MCF7, 48 h, read-out: Activity
U-251 [6] = test: Growth inhibition of human U251 cells assessed as cell growth at 10^-8 M incubated for 48 hrs by sulforhodamine B assay relative to control; settings: U-251, 48 h, read-out: Activity
SF-295 [7] = test: Cytotoxicity against human SF295 cells after 48 hrs by SRB assay; settings: SF-295, 48 h; for GI50: read-out: GI50; for CC50: read-out: LC50 (the source's name)
MOLT-4 = test: Growth inhibition of human MOLT4 cells assessed as cell growth at 10^-8 M incubated for 48 hrs by sulforhodamine B assay relative to control; settings: MOLT-4, 48 h, read-out: Activity
PC-3 [8] = test: Growth inhibition of human PC3 cells assessed as cell growth at 10^-5 M incubated for 48 hrs by sulforhodamine B assay relative to control; settings: PC-3, 48 h, read-out: Activity
MCF7 [9] = test: Growth inhibition of human MCF7 cells assessed as cell growth at 10^-5 M incubated for 48 hrs by sulforhodamine B assay relative to control; settings: MCF7, 48 h, read-out: Activity
UACC-257 [10] = test: Growth inhibition of human UACC257 cells assessed as cell growth at 10^-5 M incubated for 48 hrs by sulforhodamine B assay relative to control; settings: UACC-257, 48 h, read-out: Activity
HCT-116 [11] = test: Growth inhibition of human HCT116 cells assessed as cell growth at 10^-5 M incubated for 48 hrs by sulforhodamine B assay relative to control; settings: HCT-116, 48 h, read-out: Activity
A549 [12] = test: Growth inhibition of human A549/ATCC cells assessed as cell growth at 10^-7 M incubated for 48 hrs by sulforhodamine B assay relative to control; settings: A549, 48 h, read-out: Activity
MDA-MB-468 = test: Growth inhibition of human MDA-MB-468 cells assessed as cell growth at 10^-7 M incubated for 48 hrs by sulforhodamine B assay relative to control; settings: MDA-MB-468, 48 h, read-out: Activity
HCT-116 [13] = test: Growth inhibition of human HCT116 cells assessed as cell growth at 10^-4 M incubated for 48 hrs by sulforhodamine B assay relative to control; settings: HCT-116, 48 h, read-out: Activity
NCI-H23 [14] = test: Growth inhibition of human NCI-H23 cells assessed as cell growth at 10^-8 M incubated for 48 hrs by sulforhodamine B assay relative to control; settings: NCI-H23, 48 h, read-out: Activity
A549 [15] = test: Growth inhibition of human A549/ATCC cells assessed as cell growth at 10^-4 M incubated for 48 hrs by sulforhodamine B assay relative to control; settings: A549, 48 h, read-out: Activity
U-251 [16] = test: Growth inhibition of human U251 cells assessed as cell growth at 10^-7 M incubated for 48 hrs by sulforhodamine B assay relative to control; settings: U-251, 48 h, read-out: Activity
CCRF-CEM = test: Growth inhibition of human CCRF-CEM cells assessed as cell growth at 10^-6 M incubated for 48 hrs by sulforhodamine B assay relative to control; settings: read-out: Activity
SF-295 [17] = test: Growth inhibition of human SF295 cells assessed as cell growth at 10^-7 M incubated for 48 hrs by sulforhodamine B assay relative to control; settings: SF-295, 48 h, read-out: Activity
HCT-15 = test: Cytotoxicity against human HCT15 cells after 48 hrs by SRB assay; settings: HCT-15, 48 h; for GI50: read-out: GI50
PC-3 [18] = test: Cytotoxicity against human PC3 cells after 48 hrs by SRB assay; settings: PC-3, 48 h; for GI50: read-out: GI50; for CC50: read-out: LC50 (the source's name); for TGI: read-out: TGI
HL-60(TB) = test: Growth inhibition of human HL-60(TB) cells assessed as cell growth at 10^-7 M incubated for 48 hrs by sulforhodamine B assay relative to control; settings: HL-60, 48 h, read-out: Activity

## C#C[C@@]1(O)[C@@H](CO)O[C@@H](n2cc(I)c3c(N)ncnc32)[C@@H]1O
UACC-257 [1]
  growth at 1 µM: 72 to 79%
LOX IMVI
  growth at 0.1 µM: 27 to 46%
SK-MEL-2
  growth at 1 µM: 11 to 24%
Hs-578T
  growth at 0.1 µM: 73 to 84%
TK-10
  growth at 1 µM: 34 to 39%
NCI-H23 [2]
  growth at 10 µM: -16%
UACC-257 [3]
  GI50: 2180 to 2500 nM
  CC50: > 100 µM
  TGI: 18.6 to 41.5 µM
786-0
  growth at 0.01 µM: 87 to 98%
NCI/ADR-RES
  growth at 0.1 µM: 41 to 47%
EKVX
  growth at 0.01 µM: 79 to 90%
U-251 [4]
  growth at 1 µM: 6 to 9%
SF-268
  growth at 1 µM: 49 to 55%
SN12C
  growth at 0.1 µM: 43 to 54%
MCF7 [5]
  growth at 0.01 µM: 35 to 54%
U-251 [6]
  growth at 0.01 µM: 94 to 99%
SF-295 [7]
  GI50: 251 to 432 nM
  CC50: > 100 µM
SF-295 [7]; read-out: TGI
  TGI: 3.77 µM
SF-295 [7]; read-out: pTGI (converted)
  TGI: 3.8 µM
MOLT-4
  growth at 0.01 µM: 75 to 83%
PC-3 [8]
  growth at 10 µM: 2%
MCF7 [9]
  growth at 10 µM: 1 to 5%
UACC-257 [10]
  growth at 10 µM: 6 to 7%
HCT-116 [11]
  growth at 10 µM: 3%
A549 [12]
  growth at 0.1 µM: 69 to 80%
MDA-MB-468
  growth at 0.1 µM: 65 to 68%
HCT-116 [13]
  growth at 100 µM: 4%
NCI-H23 [14]
  growth at 0.01 µM: 87 to 91%
A549 [15]
  growth at 100 µM: 4 to 8%
U-251 [16]
  growth at 0.1 µM: 40 to 45%
CCRF-CEM
  growth at 1 µM: 17 to 23%
SF-295 [17]
  growth at 0.1 µM: 63 to 76%
HCT-15
  GI50: 107 to 175 nM
HCT-15; read-out: LC50 (the source's name)
  CC50: > 100 µM
HCT-15; read-out: TGI
  TGI: > 100 µM
HCT-15; read-out: pTGI (converted)
  TGI: > 100 µM
PC-3 [18]
  GI50: 66.3 to 86.1 nM
  CC50: > 100 µM
  TGI: 14.5 to 100 µM
HL-60(TB)
  growth at 0.1 µM: 16 to 43%

## C#C[C@@]1(O)[C@@H](CO)O[C@@H](n2cc(Cl)c3c(N)ncnc32)[C@@H]1O
UACC-257 [1]
  growth at 1 µM: 12 to 29%
LOX IMVI
  growth at 0.1 µM: 34 to 47%
Hs-578T
  growth at 0.1 µM: 100 to 107%
UACC-257 [3]
  GI50: 270 to 446 nM
  CC50: > 100 µM
  TGI: 63.8 to 100 µM
786-0
  growth at 0.01 µM: 80 to 82%
NCI/ADR-RES
  growth at 0.1 µM: 37 to 40%
EKVX
  growth at 0.01 µM: 83 to 89%
SF-268
  growth at 1 µM: 23 to 24%
SN12C
  growth at 0.1 µM: 53 to 72%
MCF7 [5]
  growth at 0.01 µM: 67 to 75%
U-251 [6]
  growth at 0.01 µM: 47 to 66%
SF-295 [7]
  GI50: 202 to 298 nM
  CC50: > 100 µM
SF-295 [7]; read-out: TGI
  TGI: 1.9 to 3.2 µM
MOLT-4
  growth at 0.01 µM: 81 to 83%
UACC-257 [10]
  growth at 10 µM: 34 to 42%
HCT-116 [11]
  growth at 10 µM: 4%
A549 [12]
  growth at 0.1 µM: 61 to 77%
MDA-MB-468
  growth at 0.1 µM: 82 to 89%
HCT-116 [13]
  growth at 100 µM: 3 to 4%
NCI-H23 [14]
  growth at 0.01 µM: 88 to 89%
A549 [15]
  growth at 100 µM: 8 to 12%
CCRF-CEM
  growth at 1 µM: 7%
SF-295 [17]
  growth at 0.1 µM: 66 to 77%
HCT-15
  GI50: 134 to 152 nM
HCT-15; read-out: TGI
  TGI: > 100 µM
HCT-15; read-out: pLC50 (the source's name) (converted)
  CC50: > 100 µM
HCT-15; read-out: pTGI (converted)
  TGI: > 100 µM
PC-3 [18]
  GI50: 173 to 211 nM
  CC50: > 100 µM
  TGI: 3.52 to 4.54 µM
HL-60(TB)
  growth at 0.1 µM: 19 to 47%
